Row | melting point | Structure (SMILES)
1 | 183 to 184 °C | COc1cc2c3ccc(OC)c(OC)c3c(=O)n(Cc3ccccc3)c2cc1OC
2 | 44.6 to 46.2 °C | CCOC(OCC)c1cccc2c1Sc1ccccc1N2C
3 | 109 to 111 °C | CCCCCc1ccc(C(=O)Cc2cccc(C(=O)O)c2)cc1
4 | > 200 °C | O=C(Nc1ccccc1Cl)C1CN(C(=O)Nc2ccc(C(F)(F)F)cc2)N=C1c1ccc(Cl)cc1 (stereo unspecified)
5 | 188 °C | CCOC(=O)c1sc2c(c1C)c(N)c(C(=O)c1ccccc1)n2C(C)=O
6 | 102 to 105 °C | OC1CCN(c2nnc(-c3ccc(Cl)cc3)c(-c3ccc(Cl)cc3)n2)CC1
7 | 140 to 143 °C | CC1(C)C2CCC1(C)C(C(=O)OC(CSc1ccccc1)(C(=O)Nc1ccc(C#N)c(C(F)(F)F)c1)C(F)(F)F)C2 (stereo unspecified)
8 | 164 °C | CCCCOc1cc(/C=C(\OCC)C(=O)O)ccc1OCCc1ccc(NS(=O)(=O)CCCC)cc1
9 | 128 °C | CC(C)NCC(O)COC1c2ccccc2C(=O)N1c1cccc(Cl)c1 (stereo unspecified)
10 | 136 to 138 °C | Cc1cc2c(c(C)c1S(=O)(=O)C[N+](=O)[O-])CCCO2
11 | 75 to 77 °C | Cc1ccnc(CO)c1Br
12 | 179 to 180 °C | O=C(Nc1cccc(S(=O)(=O)C(F)(F)F)c1)c1c(O)ccc2ccccc12
13 | 66 to 68 °C | CCCN(CC1CC1)c1nc(C)[nH]c2c(-c3ccc(Cl)cc3Cl)nc(C)c1-2
14 | 250 to 252 °C | N#CCCNC(=O)c1n[nH]cc1NC(=O)c1ccoc1
15 | 48 to 49 °C | CCCc1ccc(C(=O)C(=O)OCC)[nH]1
16 | 229 °C | CSc1ccc(-c2c(C)n[nH]c(=O)c2-c2ncc(Cl)cc2Cl)nc1
17 | 233 to 234 °C | CC(C)c1cccc(C(C)C)c1N1C(=O)C(c2ccccc2)=C(c2ccccc2)C1=O
18 | 166 to 169 °C | CCCCn1c(=O)c2[nH]cnc2n(CCCC)c1=O
19 | 204 to 205 °C | COc1ccc2[nH]c(C(N)=O)cc2c1
20 | 72 to 75 °C | CCCCCCCCCCCCCCCCCC(O)c1ccc(C2=NC(C)(C)CO2)cc1 (stereo unspecified)
21 | 224 °C | Cc1cc(-c2ccc(C(F)(F)F)cc2)nc(-c2cccc(-c3cccc(S(N)(=O)=O)c3)c2)n1
22 | 151 to 154 °C | CCCNCCc1ccc(NS(=O)(=O)c2ccc(OC(F)(F)F)cc2)cc1
23 | 139 to 140 °C | O=C(CCCc1cccs1)N[C@H](Cc1ccc(C(F)(F)F)cc1)[C@@H](O)c1cccc2ccccc12 (racemic)

Row | melting point | Structure (SMILES)
24 | 113 to 115 °C | O=S(=O)(Nc1onc(-c2ccccc2)c1Br)c1ccccc1
25 | 178 to 180 °C | CCNC(=O)Nc1n[nH]c2ccc(-c3ncccc3Cl)cc12
26 | 175 to 176 °C | COc1ccc(N(C(=O)c2ccc3ccccc3c2)c2ccc(OCc3ccccc3)cc2)cc1
27 | 240 °C | NS(=O)(=O)c1cccc(-c2cc(-c3nc(-c4ccc(F)cc4)cc(C(F)(F)F)n3)ccn2)c1
28 | 164 to 170 °C | CCN1CCc2ccc(Nc3ncc(C#N)c(Nc4ccccc4C(=O)NC)n3)cc2CC1
29 | 137 to 139 °C | CC(=O)c1ccc(Cc2c(Cl)cc(NN=Cc3ccccc3)cc2Cl)cc1
30 | 103 to 105 °C | Cn1cccc1C=CC(=O)NCCCCCC(=O)NO
31 | 193 to 196 °C | CCNC(=O)Nc1ccc(-c2ccc3nnn(Cc4ccc5ncccc5c4)c3n2)cc1
32 | 121 to 123 °C | CN(C)Cc1nc(CO)nn1-c1ccc(Cl)cc1C(O)c1ccccc1 (stereo unspecified)
33 | 212 °C | Cc1ccc(S(=O)(=O)Nc2coc3ccccc3c2=S)cc1
34 | 145 to 146 °C | CC(C)Cn1c(CCl)c(-c2ccccc2)c2cc(Br)ccc2c1=O
35 | 226 to 228 °C | COCCCC(=O)c1cc(C(=O)O)c2cc(Cc3ccc(F)cc3)cnc2c1O
36 | 89 to 90 °C | CCOC(=O)Cc1c(C)nn(-c2ccccn2)c1-c1ccccc1
37 | 163 to 164 °C | CCn1ncc2c(NCc3ccccc3)c3ccc(OC)cc3nc21
38 | 142 to 145 °C | CC(=O)ON=C(N)c1ccc(C(=O)N2CCN(C(=O)[C@@H]3CCCN3S(=O)(=O)c3ccc(Cl)c(COc4cccn5c(C)c(C)nc45)c3Cl)CC2)cc1
39 | 67.5 to 68.5 °C | C=CC1CC1(C(=O)OC)C(=O)OCc1ccco1 (stereo unspecified)
40 | 163 to 165 °C | O=C(NNC(=S)Nc1cccc(Br)c1)c1cccc([N+](=O)[O-])c1
41 | 99 to 100 °C | C[C@H](C#Cc1sccc1Cc1ccc(F)cc1)N(O)C(N)=O
42 | 175 to 177 °C | c1ccc(COc2ncnc3nc[nH]c23)cc1
43 | 45 to 47 °C | CCCCCCCCCC(=O)Oc1ccc([N+](=O)[O-])cc1OC(=O)CCCCCCCCC
44 | 229 to 230 °C | CCCOc1cccc2c1C(N)=NS(=O)(=O)N2
45 | 154 to 155 °C | CCOCC1(C)CCCSc2cc(C#Cc3ccc(C(=O)O)cc3)ccc21 (stereo unspecified)
46 | 150 °C | CCNc1cc(Cl)nc(C#N)c1N

Row | melting point | Structure (SMILES)
47 | 173 to 175 °C | NC(=NCC(F)(F)F)Nc1nc(CCCCNc2ncccn2)cs1
48 | 207 °C | CC1(C)Oc2ccncc2[C@@H](Oc2ccccn2)[C@@H]1O (relative stereo)
49 | 163 to 165 °C | COc1cccc(OC)c1-c1ccccc1P(C1CCCCC1)C1CCCCC1
50 | 187 to 188 °C | Cc1nnc(-c2ccc3occ(-c4cc(Cl)ccc4F)c3c2)o1
51 | 217 to 218 °C | COc1ccc(COc2ccc(-c3ccc(C(=O)O)c(=O)[nH]3)cc2OC)cc1OC
52 | 72.7 to 73.3 °C | CCCCCC1CCc2cc(C(=O)Oc3ccc(C#N)cc3)ccc2C1 (stereo unspecified)
53 | 294 to 296 °C | COc1ccc2c(c1)C(=O)c1c-2c(O)nc2ccccc12
54 | 125 to 127 °C | Cc1ccc(S(=O)(=O)OCC(O)Cc2c(Cl)cc3c(c2O)CCC3)cc1 (stereo unspecified)
55 | 191 to 193 °C | Cc1c(-c2ccccc2)oc2c(C(=O)NCCCO)cccc2c1=O
56 | 88 to 90 °C | Cc1ccc(C=COc2cccc3c2C(=O)c2ccccc2C3=O)cc1
57 | 293 to 296 °C | O=C1N=C(NN2CCCC2)SC1=Cc1cccc(-c2cc(F)c(O)c(C34CC5CC(CC(C5)C3)C4)c2)c1
58 | 114 to 116 °C | COc1ccc(Cc2nc(OCc3ccccc3)cc3cc(OC)c(OC)cc23)cc1OC
59 | 158 to 160 °C | O=C(NC(=O)c1ccccc1Cl)Nc1cc(Cl)c(OC(F)(F)C(F)Cl)cc1Cl (stereo unspecified)
60 | 57 to 60 °C | CC1(C)C2CC3CCC(=O)OC3C1C2 (stereo unspecified)
61 | 152 to 154 °C | CC(=O)Nc1ccc(I)cc1F
62 | 211 to 213 °C | C#CCN1CCN(c2c(Cl)cc3c(=O)c(C(=O)O)cn4c3c2CCC4C)CC1 (stereo unspecified)
63 | 134 to 136 °C | CCC(C)n1c(=O)nc(SC)[nH]c1=O (stereo unspecified)
64 | 68 to 69 °C | CCN(CC)CC(=C1NCCCS1)[N+](=O)[O-]
65 | 155 to 157 °C | Cc1cccc(-n2cnc(OC(C)C(=O)O)n2)c1 (stereo unspecified)
66 | 155 to 157 °C | CCCCCCCCCCc1ccc(NC(=O)c2cnc(C(=O)NCC(=O)OCC)c(OC)c2)cc1
67 | 87 to 88 °C | Cc1oc(-c2ccccc2)nc1COc1ccc2cc(CCCCC#N)oc2c1
68 | 187 to 188 °C | CCCCS(=O)Cc1ccc(CS(=O)CCCC)cc1 (stereo unspecified)
69 | 111 to 115 °C | CCOC(=O)C(C1c2ccccc2Sc2ccccc21)[N+](=O)[O-] (stereo unspecified)

Row | Structure (SMILES) | melting point
70 | CC(C)(C)C(=O)Nc1cc(Cl)c([N+](=O)[O-])cc1Cl | 142 to 145 °C
71 | CC1CCCCC1OC(=O)c1ncn2c1C1CCCN1C(=O)c1c(Cl)cccc1-2 (stereo unspecified) | 213 to 215 °C
